Results from PubChem BioAssay AID264 (DTP/NCI, 2004).
Where “and” joins values, the source holds several entries; their conditions need not be identical. Equal entries are not always repeated. Records with an inconclusive call do not appear.

System: nude mice, LX-1 lung xenograft intrarenal, tumor weight T/C
Assay: NCI In Vivo Anticancer Drug Screen. Data for tumor model Human Lung LX-1 Xenograft (intrarenal inoculation) in NU/NU Swiss (nude) mice
Settings: endpoint: mean tumor weight change, higher = larger tumour
Procedure: The antitumor activity of compounds was measured in mice bearing transplantable tumors. Survival or tumor size were measured and the results are expressed as the measurement made in the treated group (T) divided by the measurement made in the vehicle treated control group (C). The tumor model used in this assay is Human Lung LX-1 Xenograft (intrarenal inoculation) in NU/NU Swiss (nude) mice

[1] = dose: 37.5 mg/kg/injection, schedule: Q04DX003 (sc), vehicle: saline with Tween-80
[2] = dose: 75.0 mg/kg/injection, schedule: Q04DX003 (sc), vehicle: saline with Tween-80
[3] = dose: 150.0 mg/kg/injection, schedule: Q04DX003 (sc), vehicle: saline with Tween-80
[4] = dose: 100.0 mg/kg/injection, schedule: Q01DX010 (sc), vehicle: saline
[5] = dose: 100.0 mg/kg/injection, schedule: Q04DX003 (sc), vehicle: saline
[6] = dose: 600.0 mg/kg/injection, schedule: Q04DX003 (sc), vehicle: saline
[7] = dose: 1200.0 mg/kg/injection, schedule: Q04DX003 (sc), vehicle: saline
[8] = dose: 600.0 mg/kg/injection, schedule: Q04DX003 (sc), vehicle: saline with Tween-80
[9] = dose: 1200.0 mg/kg/injection, schedule: Q04DX003 (sc), vehicle: saline with Tween-80
[10] = dose: 2400.0 mg/kg/injection, schedule: Q04DX003 (sc), vehicle: saline with Tween-80
[11] = dose: 50.0 mg/kg/injection, schedule: Q04DX003 (sc), vehicle: saline with Tween-80
[12] = dose: 100.0 mg/kg/injection, schedule: Q04DX003 (sc), vehicle: saline with Tween-80
[13] = dose: 200.0 mg/kg/injection, schedule: Q04DX003 (sc), vehicle: saline with Tween-80
[14] = dose: 400.0 mg/kg/injection, schedule: Q04DX003 (sc), vehicle: saline with Tween-80
[15] = dose: 9.0 mg/kg/injection, schedule: Q04DX003 (sc), vehicle: saline with Tween-80
[16] = dose: 18.0 mg/kg/injection, schedule: Q04DX003 (sc), vehicle: saline with Tween-80
[17] = dose: 36.0 mg/kg/injection, schedule: Q04DX003 (sc), vehicle: saline with Tween-80
[18] = dose: 300.0 mg/kg/injection, schedule: Q04DX003 (sc), vehicle: saline with Tween-80
[19] = dose: 25.0 mg/kg/injection, schedule: Q01DX010 (sc), vehicle: saline with Tween-80

## CCC[P+](c1ccccc1)(c1ccccc1)c1ccccc1
[1]
  T/C: 83 % of control
[2]
  T/C: 79 % of control
[3]
  T/C: 79 % of control

## CCCC(=O)O
[4]
  T/C: 103 % of control
dose: 200.0 mg/kg/injection, schedule: Q01DX010 (sc), vehicle: saline
  T/C: 77 % of control
dose: 400.0 mg/kg/injection, schedule: Q01DX010 (sc), vehicle: saline
  T/C: 71 % of control

## COC(=O)C(F)C(Br)C(=O)OC (stereo not drawn)
dose: 18.75 mg/kg/injection, schedule: Q04DX003 (sc), vehicle: saline with Tween-80
  T/C: 91 % of control
[1]
  T/C: 111 % of control
[2]
  T/C: 90 % of control

## O=C(/C=C(\Cl)C(=O)NO)NO
[5]
  T/C: 103 % of control

## COC1CC(CC2CCC(C)C(C(C)C(=O)O)O2)OC2(OC(C)(C3CCC(C)(C4OC(C5OC(O)(CO)C(C)CC5C)CC4C)O3)CC2C)C1C (stereo not drawn)
dose: 3.75 mg/kg/injection, schedule: Q04DX003 (sc), vehicle: Klucel (hydroxypropylcellulose) (HPC)
  T/C: 110 % of control
dose: 7.5 mg/kg/injection, schedule: Q04DX003 (sc), vehicle: Klucel (hydroxypropylcellulose) (HPC)
  T/C: 102 % of control
dose: 30.0 mg/kg/injection, schedule: Q04DX003 (sc), vehicle: Klucel (hydroxypropylcellulose) (HPC)
  T/C: 108 % of control

## CC[C@@]1(O)C(=O)OCc2c1cc1n(c2=O)Cc2cc3cc(O)ccc3nc2-1
dose: 32.0 mg/kg/injection, schedule: Q04DX003 (sc), vehicle: suspension in saline
  T/C: 12 % of control and 14 % of control

## CC1CCC(NC(=O)N(CCCl)N=O)CC1 (stereo not drawn)
dose: 6.25 mg/kg/injection, schedule: Q01DX010 (sc), vehicle: Klucel (hydroxypropylcellulose) (HPC)
  T/C: 34 % of control
dose: 12.5 mg/kg/injection, schedule: Q01DX010 (sc), vehicle: Klucel (hydroxypropylcellulose) (HPC)
  T/C: 5 % of control

## NC(=O)c1ncn(C2OC(CO)C(O)C2O)n1 (stereo not drawn)
dose: 300.0 mg/kg/injection, schedule: Q04DX003 (sc), vehicle: saline
  T/C: 85 % of control
[6]
  T/C: 95 % of control
[7]
  T/C: 42 % of control

## C[C@]12C=CC(=O)C=C1CC[C@@H]1[C@@H]2C(=O)C[C@@]2(C)[C@H]1CC[C@]2(O)C(=O)CO
dose: 300.0 mg/kg/injection, schedule: Q04DX003 (sc), vehicle: Klucel (hydroxypropylcellulose) (HPC)
  T/C: 50 % of control
dose: 600.0 mg/kg/injection, schedule: Q04DX003 (sc), vehicle: Klucel (hydroxypropylcellulose) (HPC)
  T/C: 56 % of control
dose: 1200.0 mg/kg/injection, schedule: Q04DX003 (sc), vehicle: Klucel (hydroxypropylcellulose) (HPC)
  T/C: 47 % of control
dose: 2400.0 mg/kg/injection, schedule: Q04DX003 (sc), vehicle: Klucel (hydroxypropylcellulose) (HPC)
  T/C: 35 % of control

## CN1N=C(N)c2cn(C3OC(COP(=O)(O)O)C(O)C3O)c3ncnc1c23 (stereo not drawn)
dose: 12.5 mg/kg/injection, schedule: Q01DX010 (sc), vehicle: water
  T/C: 107 % of control
dose: 25.0 mg/kg/injection, schedule: Q01DX010 (sc), vehicle: water
  T/C: 109 % of control
dose: 50.0 mg/kg/injection, schedule: Q01DX010 (sc), vehicle: water
  T/C: 81 % of control

## O=C1SC(c2ccccc2)=S=C1c1ccccc1
[8]
  T/C: 224 % of control
[9]
  T/C: 78 % of control
[10]
  T/C: 88 % of control

## Nc1cc2c3c(cccc3c1)C(=O)N(CCN1CCCC1)C2=O
[11]
  T/C: 42 % of control
[12]
  T/C: 79 % of control
[13]
  T/C: 108 % of control
[14]
  T/C: 46 % of control

## C[C@]12CC[C@@H]3c4ccc(OC(=O)Cc5ccc(N(CCCl)CCCl)cc5)cc4CC[C@H]3[C@@H]1CC[C@@H]2OC(=O)Cc1ccc(N(CCCl)CCCl)cc1
[13]
  T/C: 83 % of control
[14]
  T/C: 107 % of control
dose: 800.0 mg/kg/injection, schedule: Q04DX003 (sc), vehicle: saline with Tween-80
  T/C: 116 % of control
dose: 1600.0 mg/kg/injection, schedule: Q04DX003 (sc), vehicle: saline with Tween-80
  T/C: 90 % of control

## C1CCC2C[N-]CCC2C1.C1CCC2C[N-]CCC2C1.C1CCC2C[N-]CCC2C1.C1CCC2C[N-]CCC2C1.[Cl][Rh][Cl] (stereo not drawn)
dose: 4.5 mg/kg/injection, schedule: Q04DX003 (sc), vehicle: saline with Tween-80
  T/C: 64 % of control
[15]
  T/C: 89 % of control
[16]
  T/C: 63 % of control
[17]
  T/C: 60 % of control

## COc1cc2cc3c4cc(OC)c(OC)cc4cc[n+]3c(C)c2cc1OC (tested in a mixture with another compound)
dose: 50.0 mg/kg/injection, schedule: Q01DX010 (sc), vehicle: saline
  T/C: 118 % of control
[4]
  T/C: 46 % of control

## O=[N+]([O-])c1nccn1CC(O)CO (stereo not drawn)
[6]
  T/C: 91 % of control
[7]
  T/C: 78 % of control
dose: 2400.0 mg/kg/injection, schedule: Q04DX003 (sc), vehicle: saline
  T/C: 108 % of control

## COC(=O)C[C@](O)(CCC(C)(C)O)C(=O)O[C@@H]1C(OC)=C[C@]23CCCN2CCc2cc4c(cc2[C@H]13)OCO4
dose: 0.63 mg/kg/injection, schedule: Q04DX003 (sc), vehicle: saline
  T/C: 115 % of control
dose: 1.25 mg/kg/injection, schedule: Q04DX003 (sc), vehicle: saline
  T/C: 110 % of control
dose: 2.5 mg/kg/injection, schedule: Q04DX003 (sc), vehicle: saline
  T/C: 95 % of control
dose: 5.0 mg/kg/injection, schedule: Q04DX003 (sc), vehicle: saline
  T/C: 102 % of control

## O=S1(=O)C=C(c2ccccc2)C(c2ccccc2)=C1
[2]
  T/C: 59 % of control
[3]
  T/C: 81 % of control
[18]
  T/C: 59 % of control
[8]
  T/C: 71 % of control

## COc1ccc(C[C@H](N)C(=O)NC2C(CO)OC(n3cnc4c(N(C)C)ncnc43)C2O)cc1 (stereo partly drawn)
[5]
  T/C: 109 % of control
dose: 200.0 mg/kg/injection, schedule: Q04DX003 (sc), vehicle: saline
  T/C: 74 % of control

## O=C1c2cccc3cc([N+](=O)[O-])cc(c23)C(=O)N1CCN1CCCC1
[15]
  T/C: 104 % of control
[16]
  T/C: 75 % of control
[17]
  T/C: 74 % of control
dose: 72.0 mg/kg/injection, schedule: Q04DX003 (sc), vehicle: saline with Tween-80
  T/C: 76 % of control

## CCC[CH2][Hg][Cl]
dose: 18.75 mg/kg/injection, schedule: Q04DX003 (sc), vehicle: Klucel (hydroxypropylcellulose) (HPC)
  T/C: 69 % of control
dose: 37.5 mg/kg/injection, schedule: Q04DX003 (sc), vehicle: Klucel (hydroxypropylcellulose) (HPC)
  T/C: 53 % of control

## CC(C)=CCNc1ncnc2c1ncn2C1OC(CO)C(O)C1O (stereo not drawn)
dose: 200.0 mg/kg/injection, schedule: Q04DX003 (sc), vehicle: suspension in saline
  T/C: 93 % of control
dose: 400.0 mg/kg/injection, schedule: Q04DX003 (sc), vehicle: suspension in saline
  T/C: 112 % of control
dose: 800.0 mg/kg/injection, schedule: Q04DX003 (sc), vehicle: suspension in saline
  T/C: 88 % of control

## COc1cc(OC)c(NC(=O)ON2C(=O)c3ccccc3C2=O)cc1Cl
dose: 25.0 mg/kg/injection, schedule: Q04DX003 (sc), vehicle: saline with Tween-80
  T/C: 93 % of control
[11]
  T/C: 79 % of control
[12]
  T/C: 68 % of control
[13]
  T/C: 92 % of control

## CC(Cc1ccc(O)c(O)c1)C(C)Cc1ccc(O)c(O)c1 (stereo not drawn)
dose: 300.0 mg/kg/injection, schedule: Q04DX003 (sc), vehicle: saline + alcohol
  T/C: 107 % of control
dose: 600.0 mg/kg/injection, schedule: Q04DX003 (sc), vehicle: saline + alcohol
  T/C: 90 % of control
dose: 1200.0 mg/kg/injection, schedule: Q04DX003 (sc), vehicle: saline + alcohol
  T/C: 104 % of control
dose: 2400.0 mg/kg/injection, schedule: Q04DX003 (sc), vehicle: saline + alcohol
  T/C: 66 % of control

## CS(=O)(=O)OCCCCOS(C)(=O)=O
[19]
  T/C: 41 % of control

## CCCCCCCCCCCCSC1=C(Cl)C(=O)C(OC)=C(OC)C1=O
[2]
  T/C: 71 % of control
[3]
  T/C: 81 % of control

## CCCCCC1c2cc(O)ccc2OC1N1CCOCC1 (stereo not drawn)
[8]
  T/C: 150 % of control
[9]
  T/C: 52 % of control
[10]
  T/C: 89 % of control

## CCN(CC)CCCC(C)Nc1c2ccc(Cl)cc2nc2ccc(OC)cc12 (stereo not drawn)
dose: 12.5 mg/kg/injection, schedule: Q01DX010 (sc), vehicle: saline with Tween-80
  T/C: 98 % of control
[19]
  T/C: 102 % of control and 108 % of control
[3]
  T/C: 75 % of control
[18]
  T/C: 41 % of control
